System: patients with advanced solid tumors
Test: phase I dose escalation: safety, DLT, MTD, RP2D (CTCAE v. 5)
Type: in vivo
Conditions: 4:3
Excerpt: Subsequent dosing cohorts were enrolled using a standard 3 + 3 design.
If any patient in any cohort of three patients developed a DLT during cycle 1, an additional three patients were recruited to expand the cohort to up to six evaluable patients. If two or more patients in any expanded cohort developed a DLT, this dose was considered non-tolerated, and dose escalation was discontinued. The MTD was defined as the highest dose level for which no more than one of six patients experienced a DLT.
Patients were continuously evaluated for adverse events throughout the study using the Common Terminology Criteria of Adverse Events (CTCAE v. 5). The patients underwent a clinical history and physical examination, an ECOG PS, a complete blood count (CBCs), chemistry, coagulation studies, urinalysis, a serum pregnancy test (as applicable), a triplicate ECG, an ophthalmology examination, and baseline tumor assessment at screening. During cycle 1, weekly history and physical examination, CBC, chemistry, coagulation parameters, urinalysis, and triplicate ECGs were performed; in subsequent cycles, weekly labs were limited to a CBC. Repeat ophthalmology examinations were performed at cycle 3, day 1, and at the end of treatment. Repeat tumor assessment was performed every 2 cycles (6 weeks) in accordance with RECIST 1.1.

In the case of `CC(C)[C@H](N)C(=O)SCC/C=C/[C@@H]1CC(=O)NCc2nc(cs2)C(=O)NC(C)(C)C(=O)N[C@@H](C(C)C)C(=O)O1` [OKI-179, Bocodepsin], the “TEAE: Dyspnea” value (270 mg (n = 3), G2) is reported as 0 n (%), the “TEAE: ECG QT prolonged” value (270 mg (n = 3), G2) is reported as 0 n (%) and the “TEAE: Fatigue” value (270 mg (n = 3), G2) is reported as 1 (33) n (%). For the same compound, the “TEAE: Headache” value (270 mg (n = 3), G2) was 0 n (%), the “TEAE: Hypokalaemia” value (270 mg (n = 3), G2) was 0 n (%) and the “TEAE: Muscular weakness” value (270 mg (n = 3), G2) was 0 n (%). For the same compound, the “TEAE: Nasal congestion” value (270 mg (n = 3), G2) was 0 n (%), the “TEAE: Nausea” value (270 mg (n = 3), G2) was 0 n (%) and the “TEAE: Platelet count decreased” value (270 mg (n = 3), G2) was 0 n (%). For the same compound, the “TEAE: Proteinuria” value (270 mg (n = 3), G2) was 0 n (%), the “TEAE: Pyrexia” value (270 mg (n = 3), G2) was 0 n (%) and the “TEAE: Vomiting” value (270 mg (n = 3), G2) was 0 n (%). For the same compound, the “TEAE: Weight decreased” value (270 mg (n = 3), G2) was 0 n (%), the “TEAE: Anemia” value (270 mg (n = 3), G3) was 1 (33) n (%) and the “TEAE: Back pain” value (270 mg (n = 3), G3) was 0 n (%). For the same compound, the “TEAE: Cough” value (270 mg (n = 3), G3) was 0 n (%), the “TEAE: Decreased appetite” value (270 mg (n = 3), G3) was 0 n (%) and the “TEAE: Diarrhea” value (270 mg (n = 3), G3) was 0 n (%). The “TEAE: Dyspnea” value (270 mg (n = 3), G3) was 0 n (%), the “TEAE: ECG QT prolonged” value (270 mg (n = 3), G3) was 0 n (%) and the “TEAE: Fatigue” value (270 mg (n = 3), G3) was 0 n (%). For the same compound, the “TEAE: Headache” value (270 mg (n = 3), G3) was 0 n (%), the “TEAE: Hypokalaemia” value (270 mg (n = 3), G3) was 0 n (%) and the “TEAE: Muscular weakness” value (270 mg (n = 3), G3) was 0 n (%). For the same compound, the “TEAE: Nasal congestion” value (270 mg (n = 3), G3) was 0 n (%), the “TEAE: Nausea” value (270 mg (n = 3), G3) was 0 n (%) and the “TEAE: Platelet count decreased” value (270 mg (n = 3), G3) was 0 n (%). The “TEAE: Proteinuria” value (270 mg (n = 3), G3) was 0 n (%), the “TEAE: Pyrexia” value (270 mg (n = 3), G3) was 1 (33) n (%) and the “TEAE: Vomiting” value (270 mg (n = 3), G3) was 0 n (%). For the same compound, the “TEAE: Weight decreased” value (270 mg (n = 3), G3) was 0 n (%), the “TEAE: Anemia” value (350 mg (n = 3), G1) was 1 (33) n (%) and the “TEAE: Back pain” value (350 mg (n = 3), G1) was 0 n (%). For the same compound, the “TEAE: Cough” value (350 mg (n = 3), G1) was 0 n (%), the “TEAE: Decreased appetite” value (350 mg (n = 3), G1) was 0 n (%) and the “TEAE: Diarrhea” value (350 mg (n = 3), G1) was 0 n (%). For the same compound, the “TEAE: Dyspnea” value (350 mg (n = 3), G1) was 1 (33) n (%), the “TEAE: ECG QT prolonged” value (350 mg (n = 3), G1) was 0 n (%) and the “TEAE: Fatigue” value (350 mg (n = 3), G1) was 0 n (%). The “TEAE: Headache” value (350 mg (n = 3), G1) was 0 n (%), the “TEAE: Hypokalaemia” value (350 mg (n = 3), G1) was 0 n (%) and the “TEAE: Muscular weakness” value (350 mg (n = 3), G1) was 0 n (%). The “TEAE: Nausea” value (350 mg (n = 3), G1) was 1 (33) n (%), the “TEAE: Platelet count decreased” value (350 mg (n = 3), G1) was 2 (67) n (%) and the “TEAE: Proteinuria” value (350 mg (n = 3), G1) was 0 n (%). For the same compound, the “TEAE: Pyrexia” value (350 mg (n = 3), G1) was 0 n (%), the “TEAE: Vomiting” value (350 mg (n = 3), G1) was 0 n (%) and the “TEAE: Weight decreased” value (350 mg (n = 3), G1) was 0 n (%). The “TEAE: Anemia” value (350 mg (n = 3), G2) was 0 n (%), the “TEAE: Back pain” value (350 mg (n = 3), G2) was 0 n (%) and the “TEAE: Cough” value (350 mg (n = 3), G2) was 0 n (%). For the same compound, the “TEAE: Decreased appetite” value (350 mg (n = 3), G2) was 1 (33) n (%), the “TEAE: Diarrhea” value (350 mg (n = 3), G2) was 0 n (%) and the “TEAE: Dyspnea” value (350 mg (n = 3), G2) was 0 n (%). The “TEAE: ECG QT prolonged” value (350 mg (n = 3), G2) was 0 n (%), the “TEAE: Fatigue” value (350 mg (n = 3), G2) was 0 n (%) and the “TEAE: Headache” value (350 mg (n = 3), G2) was 0 n (%). For the same compound, the “TEAE: Hypokalaemia” value (350 mg (n = 3), G2) was 1 (33) n (%), the “TEAE: Muscular weakness” value (350 mg (n = 3), G2) was 1 (33) n (%) and the “TEAE: Nasal congestion” value (350 mg (n = 3), G2) was 0 n (%). The “TEAE: Nausea” value (350 mg (n = 3), G2) was 1 (33) n (%), the “TEAE: Platelet count decreased” value (350 mg (n = 3), G2) was 0 n (%) and the “TEAE: Proteinuria” value (350 mg (n = 3), G2) was 0 n (%). The “TEAE: Pyrexia” value (350 mg (n = 3), G2) was 0 n (%), the “TEAE: Vomiting” value (350 mg (n = 3), G2) was 1 (33) n (%) and the “TEAE: Weight decreased” value (350 mg (n = 3), G2) was 0 n (%). The “TEAE: Anemia” value (350 mg (n = 3), G3) was 0 n (%), the “TEAE: Back pain” value (350 mg (n = 3), G3) was 1 (33) n (%) and the “TEAE: Cough” value (350 mg (n = 3), G3) was 0 n (%). The “TEAE: Decreased appetite” value (350 mg (n = 3), G3) was 0 n (%), the “TEAE: Diarrhea” value (350 mg (n = 3), G3) was 0 n (%) and the “TEAE: Dyspnea” value (350 mg (n = 3), G3) was 0 n (%). For the same compound, the “TEAE: ECG QT prolonged” value (350 mg (n = 3), G3) was 1 (33) n (%), the “TEAE: Fatigue” value (350 mg (n = 3), G3) was 1 (33) n (%) and the “TEAE: Headache” value (350 mg (n = 3), G3) was 0 n (%).

— article PMC10778198, “First-in-Human Dose-Escalation Study of the Novel Oral Depsipeptide Class I-Targeting HDAC Inhibitor Bocodepsin (OKI-179) in Patients with Advanced Solid Tumors” (Cancers, 2023)
